Data as given in patent US8138175B2, “Heterocyclyl compounds” (Hoffmann-La Roche Inc., priority 2008, dated 2012).
pIC50: −log10 of the molar value.

Biological target: T1, human chemokine receptor 2 isoform B (Homo sapiens, UniProt P41597)
T1 construct: host or cells: CHOK1-CCR2B-A5 (CHO-K1) cells
T1 sequence (P41597 1-360 isoform P41597-2): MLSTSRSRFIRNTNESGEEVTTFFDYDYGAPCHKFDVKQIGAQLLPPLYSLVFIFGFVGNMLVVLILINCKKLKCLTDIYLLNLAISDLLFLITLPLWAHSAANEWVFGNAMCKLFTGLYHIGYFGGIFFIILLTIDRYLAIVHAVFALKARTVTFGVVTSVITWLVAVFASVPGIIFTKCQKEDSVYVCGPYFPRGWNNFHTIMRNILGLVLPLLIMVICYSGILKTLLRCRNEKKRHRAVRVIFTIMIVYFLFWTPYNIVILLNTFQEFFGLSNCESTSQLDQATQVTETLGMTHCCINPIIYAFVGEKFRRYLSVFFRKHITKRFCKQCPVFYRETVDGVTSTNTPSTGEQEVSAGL
Assay: Calcium mobilization assay
Type: cell-based
Conditions: Ca mobilization assay for CCR2; CHOK1-CCR2B-A5 cells; antagonist activity against 20 nM MCP-1; FLIPR, Fluo-4
Experimental: Calcium Mobilization Assay
CHOK1-CCR2B-A5 cells (from Euroscreen) stably overexpressing the human chemokine receptor 2 isoform B were cultured in Nutrient Hams F12 medium supplemented with 5% FBS, 100 U/ml penicillin, 100 μg/ml streptomycin, 400 μg/ml G418 and 5 μg/ml puromycin.
For the assay cells were grown overnight in 384-well black clear flat bottom polystyrene plates (Costar) at 37° C. at 5% CO2. After washing with DMEM, 20 mM Hepes, 2.5 mM probenecid, 0.1% BSA (DMEM assay buffer) cells were loaded with 4 μM Fluo-4 in the same DMEM assay buffer for 2 hours at 30° C. Excess dye was removed and cells were washed with DMEM assay buffer. 384-well compound plates were prepared with DMEM assay buffer/0.5% dimethyl sulfoxide with or without various concentrations of test compounds. Usually compounds were tested for agonist and antagonist activity.
Test compounds were added to the assay plate and agonist activity was monitored as fluorescence for 80 seconds with a FLIPR (488 nm excitation; 510-570 nm emission; Molecular Devices). After 20-30 min. of incubation at 30° C., 20 nM MCP-1 (R&D; Roche) was added and fluorescence was monitored again for 80 seconds. Increases in intracellular calcium are reported as maximum fluorescence after agonist exposure minus basal fluorescence before exposure. Antagonist activity is indicated as inhibitor concentration required for 50% inhibition of specific calcium increases.

| SMILES | pIC50 |
| --- | --- |
| CC1C(=O)N(CC[C@H](O)CN2CCC3(CC3)[C@H](O)C2)CCN1c1ccc(Cl)c(Cl)c1 (stereo partly drawn) [Example 107, 4-(3,4-Dichloro-phenyl)-1-[(S)-3-hydroxy-4-((S)-4-hydroxy-6-aza-spiro[2.5]oct-6-yl)-butyl]-3-methyl-piperazin-2-one] | 7.82 |
| C[C@H]1C(=O)N(CCCCN2CCC3(CC3)[C@H](O)C2)CCN1c1ccc(Cl)c(Cl)c1 [Example 94, (S)-4-(3,4-Dichloro-phenyl)-1-[4-((S)-4-hydroxy-6-aza-spiro[2.5]oct-6-yl)-butyl]-3-methyl-piperazin-2-one] | 8.10 |
| O=C1CCN(c2ccc(OC(F)(F)F)cc2)CCN1[C@H](CO)CCN1CCC2(CC2)[C@H](O)C1 [Example 12, 4-[(S)-3-((S)-4-Hydroxy-6-aza-spiro[2.5]oct-6-yl)-1-hydroxymethyl-propyl]-1-(4-trifluoromethoxy-phenyl)-[1,4]diazepan-5-one] | 6.92 |
| COC(=O)[C@H](CCN1C[C@@H](C)C[C@H](O)C1)N1CCN(c2cccc(C(F)(F)F)c2)CCC1=O [Example 7, (S)-4-((3S,5S)-3-Hydroxy-5-methyl-piperidin-1-yl)-2-[7-oxo-4-(3-trifluoromethyl-phenyl)-[1,4]diazepan-1-yl]-butyric acid methyl ester] | 7.05 |
| C[C@H]1C(=O)N(CCCN2CCC3(CC3)[C@H](O)C2)CCN1c1ccc(Cl)c(Cl)c1 [Example 74, (S)-4-(3,4-Dichloro-phenyl)-1-[3-((S)-4-hydroxy-6-aza-spiro[2.5]oct-6-yl)-propyl]-3-methyl-piperazin-2-one] | 8.30 |
| C[C@H]1C(=O)N(CCCN2CCCCC2)CCN1c1cccc(C(F)(F)F)c1 [Example 52, (S)-3-Methyl-1-(3-piperidin-1-yl-propyl)-4-(3-trifluoromethyl-phenyl)-piperazin-2-one] | 6.89 |
| COCC(CCN1CCC2(CC2)[C@H](O)C1)N1CCN(c2cccc(C(F)(F)F)c2)C(C)C1=O (stereo partly drawn) [Example 56, 1-[3-((S)-4-Hydroxy-6-aza-spiro[2.5]oct-6-yl)-1-methoxymethyl-propyl]-3-methyl-4-(3-trifluoromethyl-phenyl)-piperazin-2-one] | 8.00 |
| O=C1CCN(c2ccc(C(F)(F)F)cc2)CCN1[C@H](CO)CCN1CCC2(CC2)[C@H](O)C1 [Example 20, 4-[(S)-3-((S)-4-Hydroxy-6-aza-spiro[2.5]oct-6-yl)-1-hydroxymethyl-propyl]-1-(4-trifluoromethyl-phenyl)-[1,4]diazepan-5-one] | 6.46 |
| C[C@H]1C(=O)N(CCCN2CCC3(CC3)[C@H](O)C2)CCN1c1ccc(C(F)(F)F)cc1 [Example 96, (S)-1-[3-((S)-4-Hydroxy-6-aza-spiro[2.5]oct-6-yl)-propyl]-3-methyl-4-(4-trifluoromethyl-phenyl)-piperazin-2-one] | 7.59 |
| CN(C(=O)[C@H](CCN1CCC2(CC2)[C@H](O)C1)N1CCN(c2ccc(Cl)c(Cl)c2)CCC1=O)C1CC1 [Example 62, (S)—N-Cyclopropyl-2-[4-(3,4-dichloro-phenyl)-7-oxo-[1,4]diazepan-1-yl]-4-((S)-4-hydroxy-6-aza-spiro[2.5]oct-6-yl)-N-methyl-butyramide] | 6.48 |
| C[C@H]1C(=O)N(C[C@H](O)CCN2CCC3(CC3)[C@H](O)C2)CCN1c1ccc(Cl)c(Cl)c1 [Example 104, (S)-4-(3,4-Dichloro-phenyl)-1-[(R)-2-hydroxy-4-((S)-4-hydroxy-6-aza-spiro[2.5]oct-6-yl)-butyl]-3-methyl-piperazin-2-one] | 6.69 |
| CC1C(=O)N(CCCN2CCCCC2)CCN1c1ccc(Cl)c(C(F)(F)F)c1 (stereo not drawn) [Example 70, 4-(4-Chloro-3-trifluoromethyl-phenyl)-3-methyl-1-(3-piperidin-1-yl-propyl)-piperazin-2-one] | 6.24 |
| O=C1CCN(c2cccc(OC(F)(F)F)c2)CCN1[C@H](CO)CCN1CCC2(CC2)[C@H](O)C1 [Example 14, 4-[(S)-3-((S)-4-Hydroxy-6-aza-spiro[2.5]oct-6-yl)-1-hydroxymethyl-propyl]-1-(3-trifluoromethoxy-phenyl)-[1,4]diazepan-5-one] | 8.00 |
| COC(=O)C(CCN1CCC2(CC2)[C@H](O)C1)N1CCN(c2cccc(OC(F)(F)F)c2)C(C)C1=O (stereo partly drawn) [Example 47, 4-((S)-4-Hydroxy-6-aza-spiro[2.5]oct-6-yl)-2-[3-methyl-2-oxo-4-(3-trifluoromethoxy-phenyl)-piperazin-1-yl]-butyric acid methyl ester] | 8.00 |
| COC(=O)[C@@H](CCN1CCC2(CC2)[C@H](O)C1)N1CCN(c2cccc(C(F)(F)F)c2)CCC1=O [Example 8, (R)-4-((S)-4-Hydroxy-6-aza-spiro[2.5]oct-6-yl)-2-[7-oxo-4-(3-trifluoromethyl-phenyl)-[1,4]diazepan-1-yl]-butyric acid methyl ester] | 6.22 |
| CC1C(=O)N(CCCN2CCCCC2)CCN1c1cccc(OC(F)(F)F)c1 (stereo not drawn) [Example 41, 3-Methyl-1-(3-piperidin-1-yl-propyl)-4-(3-trifluoromethoxy-phenyl)-piperazin-2-one] | 6.24 |
| O=C1CCN(c2cccc(OC(F)(F)F)c2)CCN1C(CO)CCCN1CCC2(CC2)[C@H](O)C1 (stereo partly drawn) [Example 32, 4-[(R,S)-4-((S)-4-Hydroxy-6-aza-spiro[2.5]oct-6-yl)-1-hydroxymethyl-butyl]-1-(3-trifluoromethoxy-phenyl)-[1,4]diazepan-5-one] | 6.85 |
| NC(=O)[C@H](CCN1CCC2(CC2)[C@H](O)C1)N1CCN(c2ccc(Cl)c(Cl)c2)CCC1=O [Example 64, (S)-2-[4-(3,4-Dichloro-phenyl)-7-oxo-[1,4]diazepan-1-yl]-4-((S)-4-hydroxy-6-aza-spiro[2.5]oct-6-yl)-butyramide] | 6.18 |
| COC(=O)[C@H](CCN1CCC2(CC2)[C@H](O)C1)N1CCN(c2cccc(OC(F)(F)F)c2)CCC1=O [Example 13, (S)-4-((S)-4-Hydroxy-6-aza-spiro[2.5]oct-6-yl)-2-[7-oxo-4-(3-trifluoromethoxy-phenyl)-[1,4]diazepan-1-yl]-butyric acid methyl ester] | 7.52 |
| COC(=O)[C@H](CCN1CCC2(CC2)[C@H](O)C1)N1C[C@@H](C)N(c2ccc(Cl)c(Cl)c2)CCC1=O [Example 65, (S)-2-[(R)-4-(3,4-dichloro-phenyl)-3-methyl-7-oxo-[1,4]diazepan-1-yl]-4-((S)-4-hydroxy-6-aza-spiro[2.5]oct-6-yl)-butyric acid methyl ester] | 7.80 |
| CN(C)C(=O)[C@H](CCN1CCC2(CC2)[C@H](O)C1)N1CCN(c2cccc(C(F)(F)F)c2)CCC1=O [Example 22, (S)-4-((S)-4-Hydroxy-6-aza-spiro[2.5]oct-6-yl)-N,N-dimethyl-2-[7-oxo-4-(3-trifluoromethyl-phenyl)-[1,4]diazepan-1-yl]-butyramide] | 7.00 |
| CC1CN(C(CO)CCN2CCC3(CC3)[C@H](O)C2)C(=O)CCN1c1ccc(Cl)c(Cl)c1 (stereo in doubt) [Example 69, (R)-1-(3,4-Dichloro-phenyl)-4-[(S)-3-((S)-4-hydroxy-6-aza-spiro[2.5]oct-6-yl)-1-hydroxymethyl-propyl]-2-methyl-[1,4]diazepan-5-one] | 7.96 |
| COC(=O)[C@H](CCN1CCC2(CC2)[C@H](O)C1)N1CCN(c2ccc(Cl)c(Cl)c2)CCC1=O [Example 1, (S)-2-[4-(3,4-Dichloro-phenyl)-7-oxo-[1,4]diazepan-1-yl]-4-((S)-4-hydroxy-6-aza-spiro[2.5]oct-6-yl)-butyric acid methyl ester] | 7.40 |
| C[C@H]1C[C@H](O)CN(CCC(C(=O)N(C)C)N2CCN(c3cccc(C(F)(F)F)c3)CCC2=O)C1 (stereo partly drawn) [Example 18, (R,S)-4-((3S,5S)-3-Hydroxy-5-methyl-piperidin-1-yl)-N,N-dimethyl-2-[7-oxo-4-(3-trifluoromethyl-phenyl)-[1,4]diazepan-1-yl]-butyramide] | 6.19 |
| CC1CN([C@@H](CO)CCN2CCC3(CC3)[C@H](O)C2)C(=O)CCN1c1ccc(Cl)c(Cl)c1 (mixture of isomers) [Example 68, (R,S)-1-(3,4-Dichloro-phenyl)-4-[(S)-3-((S)-4-hydroxy-6-aza-spiro[2.5]oct-6-yl)-1-hydroxymethyl-propyl]-2-methyl-[1,4]diazepan-5-one] | 7.34 |
| COC(=O)C(CCN1CCC2(CC2)[C@H](O)C1)N1CCN(c2cccc(C(F)(F)F)c2)CCC1=O (stereo partly drawn) [Example 15, (R,S)-4-((S)-4-Hydroxy-6-aza-spiro[2.5]oct-6-yl)-2-[7-oxo-4-(3-trifluoromethyl-phenyl)-[1,4]diazepan-1-yl]-butyric acid methyl ester] | 7.22 |
| C[C@H]1C(=O)N(CCCN2CCC3(CC3)[C@H](O)C2)CCN1c1ccc(-c2ccccc2)cc1 [Example 80, (S)-4-Biphenyl-4-yl-1-[3-((S)-4-hydroxy-6-aza-spiro[2.5]oct-6-yl)-propyl]-3-methyl-piperazin-2-one] | 6.50 |
